Measurements as given in the NIST ThermoML archive (doi:10.1016/j.tca.2007.07.002).

Experiment: mn = molality of the nth substance listed, in mol/kg
Details: 298.15 K, 101 kPa, Liquid, Vibrating tube method

CCCC(N)=O [butanamide] + O
Details	mass density [kg/m3]
m1 = 0.2015	997.019
m1 = 0.3122	997.028
m1 = 0.4106	997.052
m1 = 0.5053	997.083
m1 = 0.628	997.117
m1 = 0.7131	997.16
m1 = 0.827	997.21
m1 = 0.9204	997.269
